Like-named read-outs stand apart in the source and are kept apart here.
Columns and labels:
Fusarium oxysporum = test: Antifungal activity, agar well diffusion method; assay type: cell-based; conditions: for zone of inhibition at 3.9 µg/mL / zone of inhibition at […] / zone of inhibition at 15.6 µg/mL / zone of inhibition at 31.25 µg/mL / zone of inhibition at 62.5 µg/mL / zone of inhibition at 125 µg/mL / zone of inhibition at 250 µg/mL / zone of inhibition at 500 µg/mL / zone of inhibition at 1000 µg/mL: Fusarium oxysporum, zones st (static growth), read-out: Diameter of inhibition zone; for zone of inhibition at 3.9 µg/mL: 0.0039 mg/mL; for zone of inhibition at […]: 0.0078 mg/mL; for zone of inhibition at 15.6 µg/mL: 0.0156 mg/mL; for zone of inhibition at 31.25 µg/mL: 0.03125 mg/mL; for zone of inhibition at 62.5 µg/mL: 0.0625 mg/mL; for zone of inhibition at 125 µg/mL: 0.125 mg/mL; for zone of inhibition at 250 µg/mL: 0.25 mg/mL; for zone of inhibition at 500 µg/mL: 0.5 mg/mL; for zone of inhibition at 1000 µg/mL: 1 mg/mL, 40 µl per well, 25 °C, 72 h; for lowest inhibition concentration: agar well diffusion, tested 0.0039-1.0 mg/mL
Text: (§1) The agar well diffusion method is widely used to evaluate the antimicrobial activity of different substances (S. Magaldi, S. Mata-Essayag, C. Hartung de Capriles, et al. Well diffusion for antifungal susceptibility testing, Int. J. Infect. Dis. 8, 2004 , 39–45; C. Valgas, S. M. De Souza, E. F. A. Smânia, et al. Screening methods to determine antibacterial activity of natural products. Braz. J. Microbiol. 38 , 2007 , 369–380). Similarly to the procedure used in a disk-diffusion method, the agar plate surface is inoculated by spreading a volume of the microbial inoculum over the entire agar surface. Then, a hole with a diameter of 6 to 8 mm is punched aseptically with a sterile cork borer or a tip, and a volume […] of the antimicrobial agent or extract solution at desired concentration is introduced into the well. Then, agar plates are incubated under suitable conditions depending upon the test microorganism. The antimicrobial agent diffuses in the agar medium and inhibits the growth of the microbial strain tested (M. Balouiri, M. Sadiki, S. K. Ibnsouda. Methods for in vitro evaluating […]
(§2) Agar well diffusion method is a qualitative method used to measure the ability of compounds to inhibit microbial growth. This test is a quick and easy way to measure and compare levels of inhibitory […]
(§3) Antifungal activity of the synthetic compounds using agar well diffusion The compunds were tested towards plant pathogens Fusarium oxysporum Schltdl. and F. verticillioides (Sacc.) Nirenberg isolated from crops. Antifungal activity of the synthetic compounds was evaluated with using of an agar well diffusion method based on a disk diffusion assay for testing filamentous fungi (CLSI M51-A) [CLSI. Method for Antifungal Disk Diffusion Susceptibility Testing of Nondermatophyte Filamentous Fungi; Approved Guideline.CLSI document M51-A. Wayne, PA:
(§4) Clinical and Laboratory Standards Institute; 2010. This method is standardized for Altenaria , Aspergillus, Bipolaris , Fusarium , order Mucorales etc.
(§5) Preparation of synthetic compounds for mycological assay
(§6) Solutions of fungicides and its analogs were diluted in dimethyl sulfoxide (DMSO) to produce the […]
(§7) Antifungal well diffusion method
(§8) The fungal strains were cultured on potato dextrose agar slants (PDA, Eur. Pharm.) and incubated at 25 °C for 5 days. Sterile distilled water was used to cover and resuspend the colonies. Suspension of […]
(§9) conidia was adjusted to inoculums 5×10^6 conidia/mL. The suspension was further diluted in warm PDA 1:10 to obtain final working inoculums 5×10^5 conidia/mL.
(§10) Polypropylene cylinders (d, 5 mm) were placed on the surface and wells punched in the medium were used as reservoir of the test substances in different concentrations. 40 µl of solutions containing 0.0039-1.0 mg/mL of a test compound was added into the wells.
(§11) Each compound was tested in triplicate at different concentrations. Growth control was a well with 40 µl of DMSO, which was used for test components dilution.
(§12) Plates incubated at 25 °C for 72 h. The test compounds at known concentration into contact with an inoculated medium then exerts a growth-inhibiting effect then a clear zone (the zone of inhibition) appears around the test product. Diameter of a clear zone around the well is measured at the end of the incubation period in millimeters. If the fungal strain is susceptible to the antifungal agent, then a zone of inhibition appears on the agar plate. If it is resistant to the test compound, then no zone is evident.
(§13) The size of the zone of inhibition is usually related to the level of antifungal activity present in the […]
(§14) The growth rate of Fusarium oxysporum and F. verticillioides for each well was determined visually and compared with the growth of control.
(§15) As shown in the table the antifungal activity of the 6 compounds, - Fluxapyroxad, compound 28, compound 29, Boscalid, compound 30, compound 31, - were tested against plant pathogenic fungal […]
(§16) toward Fusarium oxysporum (Table S5, Figure S16). Inhibition zones of all compounds characterized […]

Fusarium verticillioides = test: Antifungal activity, agar well diffusion method; assay type: cell-based; conditions: for zone of inhibition at 3.9 µg/mL / zone of inhibition at […] / zone of inhibition at 15.6 µg/mL / zone of inhibition at 31.25 µg/mL / zone of inhibition at 62.5 µg/mL / zone of inhibition at 125 µg/mL / zone of inhibition at 250 µg/mL / zone of inhibition at 500 µg/mL / zone of inhibition at 1000 µg/mL: Fusarium verticillioides, 0 = absence of antifungal activity, read-out: Diameter of inhibition zone; for zone of inhibition at 3.9 µg/mL: 0.0039 mg/mL; for zone of inhibition at […]: 0.0078 mg/mL; for zone of inhibition at 15.6 µg/mL: 0.0156 mg/mL; for zone of inhibition at 31.25 µg/mL: 0.03125 mg/mL; for zone of inhibition at 62.5 µg/mL: 0.0625 mg/mL; for zone of inhibition at 125 µg/mL: 0.125 mg/mL; for zone of inhibition at 250 µg/mL: 0.25 mg/mL; for zone of inhibition at 500 µg/mL: 0.5 mg/mL; for zone of inhibition at 1000 µg/mL: 1 mg/mL, 40 µl per well, 25 °C, 72 h
Text: as §1, §2, §3, §4, §5, §6, §7, §8, §9, §10, §11, §12, §13, §14, §15, §16

[1] = Metabolic stability in human liver microsomes; assay type: in vitro ADME; conditions: both sexes
Procedure, shortened: (§17)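 Compound incubated with human liver microsomes plus NADPH cofactor, in duplicate, with five time points over 40 min; controls replaced NADPH with phosphate buffer. Reactions quenched with methanol containing internal standard and supernatants analysed by LC-MS/MS. Stability derived from log-linear decay, sometimes dropping the last time point.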

human liver microsomes = test: Metabolic stability in human liver microsomes; assay type: in vitro ADME
Procedure, shortened: as §17

[2] = human, microsomes, pH 7.4, % Remaining without cofactor, Mean of 2
[3] = human, microsomes, pH 7.4, % Remaining, Mean of 2
[4] = human, microsomes, pH 7.4, Clint
[5] = human, microsomes, pH 7.4, t1/2

Row | Structure (SMILES) | zone of inhibition at 3.9 µg/mL (Fusarium oxysporum) [mm] | zone of inhibition at […] (Fusarium oxysporum) [mm] | zone of inhibition at 15.6 µg/mL (Fusarium oxysporum) [mm] | zone of inhibition at 31.25 µg/mL (Fusarium oxysporum) [mm] | zone of inhibition at 62.5 µg/mL (Fusarium oxysporum) [mm] | zone of inhibition at 125 µg/mL (Fusarium oxysporum) [mm] | zone of inhibition at 250 µg/mL (Fusarium oxysporum) [mm] | zone of inhibition at 500 µg/mL (Fusarium oxysporum) [mm] | zone of inhibition at 1000 µg/mL (Fusarium oxysporum) [mm] | lowest inhibition concentration (Fusarium oxysporum) [mg/mL] | zone of inhibition at 3.9 µg/mL (Fusarium verticillioides) [mm] | zone of inhibition at […] (Fusarium verticillioides) [mm] | zone of inhibition at 15.6 µg/mL (Fusarium verticillioides) [mm] | zone of inhibition at 31.25 µg/mL (Fusarium verticillioides) [mm] | zone of inhibition at 62.5 µg/mL (Fusarium verticillioides) [mm] | zone of inhibition at 125 µg/mL (Fusarium verticillioides) [mm] | zone of inhibition at 250 µg/mL (Fusarium verticillioides) [mm] | zone of inhibition at 500 µg/mL (Fusarium verticillioides) [mm] | zone of inhibition at 1000 µg/mL (Fusarium verticillioides) [mm] | remaining at 40 min, 2 µM [1, 2] [%] | further results
1 | O=C(N[C@@H]1[C@H]2C[C@]1(c1ccc(Cl)cc1)CO2)c1cccnc1Cl (relative stereo) [Compound 31] | 8 ± 0.6 | 9 ± 0.6 | 14 ± 1 | 16 ± 1 | 18 ± 0.6 | 19 ± 1 | 18 ± 1 | 21 ± 1 | 25 ± 0.6 | 0.0039 | 0 | 0 | 0 | 0 | 0 | 10 ± 0.6 | 16 ± 1.2 | 23 ± 1.5 | 29 ± 1.2 |  | remaining at […], 2 µM ([1]; human, liver microsomes, pH 7.4, human liver microsomes, 2 μM, 37 °C, with NADPH, 7 min): 107%; remaining at […], 2 µM ([1]; human, liver microsomes, pH 7.4, human liver microsomes, 2 μM, 37 °C, with NADPH, 15 min): 110%; remaining at 25 min, 2 µM ([1]; human, liver microsomes, pH 7.4, human liver microsomes, 2 μM, 37 °C, with NADPH, 25 min, read-out: % Remaining, Mean of 2): 107%; remaining at 40 min, 2 µM ([1]; human, liver microsomes, pH 7.4, human liver microsomes, 2 μM, 37 °C, with NADPH, 40 min, read-out: % Remaining, Mean of 2): 108%; microsomal CLint at 2 µM ([1]; human, liver microsomes, pH 7.4, human liver microsomes, 0.42 mg protein per ml, Table S3, * approximate due to high stability, read-out: Clint): ~3 µL/min/mg; half-life at 2 µM ([1]; human, liver microsomes, pH 7.4, human liver microsomes, * approximate due to high stability, read-out: t1/2): ~8.09 h; microsomal CLint at 2 µM ([1]; human, liver microsomes, pH 7.4, human liver microsomes, Fig. 3, read-out: CIint, intrinsic clearance): 3 µL/min/mg; remaining at 40 min, 2 µM ([1]; pH 7.4, human liver microsomes, no NADPH cofactor, 40 min, ** instability partially or completely not determined by CYP450 activity, read-out: % Remaining without cofactor, Mean of 2): 85%; CIint, intrinsic clearance (human liver microsomes; human liver microsomes): 3 µL/min/mg
2 | O=C(Nc1ccccc1-c1ccc(Cl)cc1)c1cccnc1Cl [Boscalid, reference compound] | 9 ± 0.6 | 9 ± 1.7 | 11 ± 1.5 | 12 ± 1.7 | 24 ± 1 | 25 | 30 | 31 ± 1.2 | 39 ± 0.6 | 0.0039 | 0 | 11 ± 1 | 24 ± 1.5 | 28 ± 1 | 30 ± 0.6 |  | 39 ± 0.6 | 40 ± 0.6 | 44 ± 1.2 | 59 | lowest inhibition concentration (Fusarium verticillioides; agar well diffusion, tested 0.0039-1.0 mg/mL): 0.0078 mg/mL; remaining at 25 min, 2 µM [1, 3]: 75%; remaining at 40 min, 2 µM [1, 3]: 66%; microsomal CLint at 2 µM [1, 4]: 26 µL/min/mg; half-life at 2 µM [1, 5]: 1.06 h; k el at 2 µM ([1]; human, pH 7.4): 0.000183 s⁻¹; CIint, intrinsic clearance (human liver microsomes; human, microsomes): 26 µL/min/mg
3 | Cn1cc(C(=O)Nc2ccccc2-c2cc(F)c(F)c(F)c2)c(C(F)F)n1 [Fluxapyroxad, reference compound] | 14 ± 1.2 | 17 ± 1.2 | 22 ± 1.7 | 28 ± 1.5 | 30 ± 0.6 | 33 ± 1 | 35 ± 0.6 | 38 ± 1.5 | 43 ± 1.53 | < 0.0039 | 19 ± 0.6 | 26 ± 1.2 | 30 ± 1.5 | 33 ± 0.6 | 34 ± 1.2 | 36 ± 0.6 | 40 ± 1 | 49 ± 1.2 | 56 ± 1.7 | 79 | remaining at 25 min, 2 µM [1, 3]: 73%; remaining at 40 min, 2 µM [1, 3]: 63%; microsomal CLint at 2 µM [1, 4]: 28 µL/min/mg; half-life at 2 µM [1, 5]: 0.983 h; k el at 2 µM ([1]; human, pH 7.4): 0.0002 s⁻¹; CIint, intrinsic clearance (human liver microsomes; human, microsomes): 28 µL/min/mg

Source: PMC10396955, “2-Oxabicyclo[2.1.1]hexanes as saturated bioisosteres of the ortho-substituted phenyl ring” (Nature Chemistry, 2023)
